Measured values: patent US10973832B2, “Muscarinic M1 receptor agonists” (Heptares Therapeutics Limited, priority 2011, dated 2021)

Columns and labels:
Format in all cases: cell-based
[1] = target: T1, human muscarinic M3 receptor (Homo sapiens, UniProt P20309); experiment: Phospho-ERK1/2 assay, muscarinic M3; conditions: for EC50: CHO cells expressing human M3, phospho-ERK1/2 Alphascreen, read-out: pEC50 M3 (converted); for Emax: CHO, read-out: % Emax cf. ACh (M3)
T1 construct: expressed in transfected cells
T1 sequence (P20309 whole entry): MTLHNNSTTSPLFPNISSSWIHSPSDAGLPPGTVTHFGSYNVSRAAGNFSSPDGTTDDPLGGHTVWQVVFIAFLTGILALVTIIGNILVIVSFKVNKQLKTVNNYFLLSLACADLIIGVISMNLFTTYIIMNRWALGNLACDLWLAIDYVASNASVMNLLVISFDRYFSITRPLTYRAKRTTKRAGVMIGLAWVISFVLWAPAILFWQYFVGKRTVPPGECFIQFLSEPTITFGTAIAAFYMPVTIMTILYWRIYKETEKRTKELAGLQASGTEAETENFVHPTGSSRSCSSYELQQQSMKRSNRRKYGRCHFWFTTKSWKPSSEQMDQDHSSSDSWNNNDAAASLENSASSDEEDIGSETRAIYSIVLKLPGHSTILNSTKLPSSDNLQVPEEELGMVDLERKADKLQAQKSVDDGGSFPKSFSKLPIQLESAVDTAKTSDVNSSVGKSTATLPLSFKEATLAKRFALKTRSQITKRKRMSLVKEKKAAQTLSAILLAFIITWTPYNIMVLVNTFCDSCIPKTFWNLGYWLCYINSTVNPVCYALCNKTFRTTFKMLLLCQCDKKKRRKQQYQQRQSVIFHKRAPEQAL
Description: (§1) Functional assays were performed using the Alphascreen Surefire phospho-ERK1/2 assay (Crouch & Osmond, Comb. Chem. High Throughput Screen, 2008). ERK1/2 phosphorylation is a downstream consequence of both Gq/11 and Gi/o protein coupled receptor activation, making it highly suitable for the assessment of M1, M3 (Gq/11 coupled) and M2, M4 receptors (Gi/o coupled), rather than using different assay formats for different receptor subtypes. CHO cells stably expressing the human muscarinic M1, M2, M3 or M4 receptor were plated (25K/well) onto 96-well tissue culture plates in MEM-alpha+10% dialysed FBS. Once adhered, cells were serum-starved overnight. Agonist stimulation was performed by the addition of 5 μL agonist to the cells for 5 min (37° C.). Media was removed and 50 μL of lysis buffer added. After 15 min, a 4 μL sample was transferred to 384-well plate and 7 μL of detection mixture added. Plates were incubated for 2 h with gentle agitation in the dark and then read on a PHERAstar plate reader.
(§2) pEC50 and Emax figures were calculated from the resulting data for each receptor subtype.

[2] = target: T2, human muscarinic M2 receptor (Homo sapiens, UniProt P08172); experiment: Phospho-ERK1/2 assay, muscarinic M2; conditions: for EC50: CHO cells expressing human M2, phospho-ERK1/2 Alphascreen, read-out: pEC50 M2 (converted); for Emax: CHO, read-out: % Emax cf. ACh (M2)
T2 sequence (P08172 1-466): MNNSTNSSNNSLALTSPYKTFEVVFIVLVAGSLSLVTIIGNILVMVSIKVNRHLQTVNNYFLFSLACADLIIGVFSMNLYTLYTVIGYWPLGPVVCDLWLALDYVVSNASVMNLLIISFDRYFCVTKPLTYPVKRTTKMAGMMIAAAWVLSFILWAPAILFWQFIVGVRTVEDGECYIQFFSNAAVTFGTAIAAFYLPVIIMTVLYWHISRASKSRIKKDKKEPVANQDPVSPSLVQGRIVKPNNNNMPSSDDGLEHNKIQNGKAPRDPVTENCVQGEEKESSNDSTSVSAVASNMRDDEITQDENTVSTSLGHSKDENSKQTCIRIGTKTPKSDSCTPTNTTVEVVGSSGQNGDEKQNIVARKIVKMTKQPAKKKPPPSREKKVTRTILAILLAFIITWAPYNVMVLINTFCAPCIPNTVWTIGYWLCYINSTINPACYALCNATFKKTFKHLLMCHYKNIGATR
Description: as §1, §2

[3] = target: T3, human muscarinic M4 receptor (Homo sapiens, UniProt P08173); experiment: Phospho-ERK1/2 assay, muscarinic M4; conditions: for EC50: CHO cells expressing human M4, phospho-ERK1/2 Alphascreen, read-out: pEC50 M4 (converted); for Emax: CHO, read-out: % Emax cf. ACh (M4)
T3 construct: expressed in transfected cells
T3 sequence (P08173 1-479): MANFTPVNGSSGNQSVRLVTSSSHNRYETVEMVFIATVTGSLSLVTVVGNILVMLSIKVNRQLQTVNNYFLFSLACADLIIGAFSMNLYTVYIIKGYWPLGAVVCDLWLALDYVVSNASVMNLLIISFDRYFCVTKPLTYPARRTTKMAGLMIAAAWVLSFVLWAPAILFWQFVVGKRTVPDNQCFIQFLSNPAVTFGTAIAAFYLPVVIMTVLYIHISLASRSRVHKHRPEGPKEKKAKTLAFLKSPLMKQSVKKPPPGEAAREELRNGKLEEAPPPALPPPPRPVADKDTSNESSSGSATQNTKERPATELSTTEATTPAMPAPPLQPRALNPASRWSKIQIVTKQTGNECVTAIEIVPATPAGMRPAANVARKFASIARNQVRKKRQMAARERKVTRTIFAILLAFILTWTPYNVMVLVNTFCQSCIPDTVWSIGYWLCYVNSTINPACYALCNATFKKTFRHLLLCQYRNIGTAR
Description: as §1, §2

[4] = target: T4, human muscarinic M1 receptor (Homo sapiens, UniProt P11229); experiment: Phospho-ERK1/2 assay, muscarinic M1; conditions: for EC50: CHO cells expressing human M1, phospho-ERK1/2 Alphascreen, read-out: pEC50 M1 (converted); for Emax: CHO, read-out: % Emax cf. ACh (M1)
T4 sequence (P11229 1-460): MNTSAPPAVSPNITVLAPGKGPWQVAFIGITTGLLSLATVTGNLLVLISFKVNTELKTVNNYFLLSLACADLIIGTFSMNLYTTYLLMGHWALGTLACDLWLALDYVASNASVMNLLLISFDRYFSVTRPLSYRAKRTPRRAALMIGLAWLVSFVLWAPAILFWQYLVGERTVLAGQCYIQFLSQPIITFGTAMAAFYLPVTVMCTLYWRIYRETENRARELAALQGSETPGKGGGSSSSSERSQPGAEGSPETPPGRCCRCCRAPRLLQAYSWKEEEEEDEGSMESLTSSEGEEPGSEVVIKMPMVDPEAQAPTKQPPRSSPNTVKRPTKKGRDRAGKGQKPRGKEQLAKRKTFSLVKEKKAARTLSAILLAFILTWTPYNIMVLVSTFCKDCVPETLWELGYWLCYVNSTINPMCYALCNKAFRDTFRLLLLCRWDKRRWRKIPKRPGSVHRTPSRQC
Description: as §1, §2

Structure (SMILES) | EC50 [1] [nM] | Emax [1] [%] | EC50 [2] [nM] | Emax [2] [%] | EC50 [3] [nM] | Emax [3] [%] | EC50 [4] [nM] | Emax [4] [%]
CCOC(=O)N1CCCC(N2CCC(C(=O)NCC3(C)CCC3)CC2)CC1 (stereo not shown) [Example 69, ethyl 4-(4-{[(1-methylcyclobutyl)methyl]carbamoyl}piperidin-1-yl)azepane-1-carboxylate] | > 20000 | 14 | > 20000 | 12 | 240 | 78 | 10.5 | 120
CCOC(=O)N1CCCC(N2CCC(C(=O)NCC(C)(C)C)CC2)CC1 (stereo not shown) [Example 9, ethyl 4-(4-((2,2-dimethylpropyl)carbamoyl)piperidin-1-yl)azepane-1-carboxylate] | 13200 | 23 | > 20000 | 6 | 794 | 41 | 117 | 125
CCOC(=O)N1CCCC(N2CCC(F)(C(=O)NCC3CC3)CC2)CC1 (stereo not shown) [Example 52, ethyl 4-(4-fluoro-4-((cyclopropylmethyl)carbamoyl)piperidin-1-yl)azepane-1-carboxylate] | > 20000 | 5 | > 20000 | 9 | 501 | 84 | 229 | 95
CCOC(=O)N1CCCC(N2CCC(OC)(C(=O)NCC3(C)CCC3)CC2)CC1 (stereo not shown) [Example 81, ethyl 4-(4-methoxy-4-{[(1-methylcyclobutyl)methyl]carbamoyl}piperidin-1-yl)azepane-1-carboxylate] | > 20000 | 7 | > 20000 | 0 | > 20000 | 9 | 141 | 110
CCOC(=O)N1CCCC(N2CCC(F)(C(=O)NC(C)(C)C(C)C)CC2)CC1 (stereo not shown) [Example 44, ethyl 4-(4-fluoro-4-((2,3-dimethylbutan-2-yl)carbamoyl)piperidin-1-yl)azepane-1-carboxylate] | > 20000 | 5 | > 20000 | 19 | 417 | 113 | 31.6 | 104
CCOC(=O)N1CCCC(N2CCC(F)(C(=O)NCC3CCCC3)CC2)CC1 (stereo not shown) [Example 53, ethyl 4-(4-fluoro-4-((cyclopentylmethyl)carbamoyl)piperidin-1-yl)azepane-1-carboxylate] | > 20000 | 17 | > 20000 | 9 | 977 | 90 | 97.7 | 122
CCOC(=O)N1CCCC(N2CCC(F)(C(=O)NCC(C)(C)C)CC2)CC1 (stereo not shown) [Example 46, ethyl 4-(4-fluoro-4-((2,2-dimethylpropyl)carbamoyl)pipendin-1-yl)azepane-1-carboxylate] | > 20000 | 1 | > 20000 | 9 | 1070 | 63 | 105 | 90
CCOC(=O)N1CCCC(N2CCC(C(=O)NC3(CC)CCC3)CC2)CC1 (stereo not shown) [Example 74] | > 20000 | 4 | > 20000 | 19 | 282 | 97 | 52.5 | 132
